Columns and labels:
[1] = target: T1, Fibroblast growth factor receptor 2 (Homo sapiens, UniProt P21802); experiment: FGFR2 Enzyme Activity Assay
Description: (§1) FGFR2 kinase activity was measured by the Invitrogen LanthaScreen™ Assay technology which directly measures the amount of substrate phosphorylation by TR-FRET using a fluorescently-labeled peptide and Europium-labeled antibody. […] After a 20 minute incubation at 22° C., an equal volume of 2 nM LanthaScreen Eu-PY20 Antibody (Life Technologies Cat. No. PV5691) and 10 mM EDTA were added to quench the kinase reaction and start the detection reaction. After an additional 60 minute incubation at 22° C., the reaction was measured using a PerkinElmer EnVision multimode plate reader via TR-FRET dual wavelength detection, and the percent of control (POC) calculated using a ratiometric emission factor. 100 POC was determined using no test compounds and 0 POC was determined using no enzyme. The POC values were fit to a 4-parameter logistic curve as a function of the concentration of the compound, and the IC50 value is the point where the curve crosses 50 POC.

[2] = target: T2, Fibroblast growth factor receptor 1 (Homo sapiens, UniProt P11362); experiment: FGFR1 Enzyme Activity Assay
Description: as §1, with “FGFR1 kinase” for “FGFR2 kinase”, “by Time-resolved fluorescence energy transfer (TR-FRET)” for “by TR-FRET”, “20 minutes” for “20 minute”, “EDTA was” for “EDTA were”

[3] = target: T3, Fibroblast growth factor receptor 3 (Homo sapiens, UniProt P22607); experiment: Enzyme Assay
Description: (§2) he potency of compounds inhibiting human isoforms of FGFR kinase was determined using Life Technologies' Homogeneous Time Resolved Fluorescence (HTRF)-based binding assay technology. […] After a 60 minute incubation at 22° C., the extent of tracer displacement was determined using a PerkinElmer EnVision multimode plate reader via HTRF dual wavelength detection, and the percent of control (POC) was calculated using a ratiometric emission factor. One hundred POC was determined using no test compound, and 0 POC was determined in the presence of 1 μM of an appropriate control inhibitor.

[4] = target: T2, Fibroblast growth factor receptor 1; experiment: Enzyme Assay
Description: as §2

[5] = target: T3, Fibroblast growth factor receptor 3; experiment: FGFR3 Enzyme Activity Assay
Description: as §1, with “FGFR3 kinase” for “FGFR2 kinase”, “a 10” for “a 20”

[6] = target: T1, Fibroblast growth factor receptor 2; experiment: Enzyme Assay
Description: as §2

T3 sequence (P22607 whole entry, canonical isoform): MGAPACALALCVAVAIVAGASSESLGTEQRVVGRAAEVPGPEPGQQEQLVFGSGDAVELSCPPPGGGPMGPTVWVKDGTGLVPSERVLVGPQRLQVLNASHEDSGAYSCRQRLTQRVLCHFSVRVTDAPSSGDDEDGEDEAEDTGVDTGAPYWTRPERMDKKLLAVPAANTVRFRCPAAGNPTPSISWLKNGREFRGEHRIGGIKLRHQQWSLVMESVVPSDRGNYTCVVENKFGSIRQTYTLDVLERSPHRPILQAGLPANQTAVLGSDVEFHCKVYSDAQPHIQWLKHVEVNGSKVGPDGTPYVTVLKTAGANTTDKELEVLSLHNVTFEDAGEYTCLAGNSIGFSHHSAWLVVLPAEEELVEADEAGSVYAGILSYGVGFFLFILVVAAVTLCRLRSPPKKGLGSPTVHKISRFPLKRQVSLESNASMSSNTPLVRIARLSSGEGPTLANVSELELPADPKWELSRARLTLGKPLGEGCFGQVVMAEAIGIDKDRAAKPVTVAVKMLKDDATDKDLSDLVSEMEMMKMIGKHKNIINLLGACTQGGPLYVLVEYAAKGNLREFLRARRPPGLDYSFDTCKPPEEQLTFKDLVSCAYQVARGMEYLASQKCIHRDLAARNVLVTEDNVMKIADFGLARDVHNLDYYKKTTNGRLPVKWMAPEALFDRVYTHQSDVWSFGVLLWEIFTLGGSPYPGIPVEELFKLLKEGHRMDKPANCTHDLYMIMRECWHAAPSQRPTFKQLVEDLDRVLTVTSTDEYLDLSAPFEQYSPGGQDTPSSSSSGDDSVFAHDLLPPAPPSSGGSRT
T2 sequence (P11362 whole entry): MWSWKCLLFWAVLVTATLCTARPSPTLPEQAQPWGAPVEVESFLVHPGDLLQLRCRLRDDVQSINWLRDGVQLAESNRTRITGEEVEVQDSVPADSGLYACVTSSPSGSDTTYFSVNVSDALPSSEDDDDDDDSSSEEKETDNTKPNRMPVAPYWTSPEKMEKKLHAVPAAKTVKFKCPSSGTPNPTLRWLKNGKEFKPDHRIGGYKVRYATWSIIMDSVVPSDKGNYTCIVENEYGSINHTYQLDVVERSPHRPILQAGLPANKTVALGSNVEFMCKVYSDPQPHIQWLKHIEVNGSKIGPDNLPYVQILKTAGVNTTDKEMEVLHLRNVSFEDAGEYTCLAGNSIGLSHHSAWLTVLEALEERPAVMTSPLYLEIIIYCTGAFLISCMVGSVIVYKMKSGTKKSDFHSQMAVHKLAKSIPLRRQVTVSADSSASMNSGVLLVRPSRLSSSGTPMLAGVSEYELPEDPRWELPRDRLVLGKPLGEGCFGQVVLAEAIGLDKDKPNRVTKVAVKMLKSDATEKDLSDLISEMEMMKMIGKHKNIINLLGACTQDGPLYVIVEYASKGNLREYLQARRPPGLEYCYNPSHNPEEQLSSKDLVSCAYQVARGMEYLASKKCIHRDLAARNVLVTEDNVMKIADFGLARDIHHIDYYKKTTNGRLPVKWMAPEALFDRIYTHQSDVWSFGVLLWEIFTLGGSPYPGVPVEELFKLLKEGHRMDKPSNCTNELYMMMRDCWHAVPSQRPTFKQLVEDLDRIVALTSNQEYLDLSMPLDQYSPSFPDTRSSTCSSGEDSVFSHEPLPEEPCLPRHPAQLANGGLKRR
T1 sequence (P21802 whole entry): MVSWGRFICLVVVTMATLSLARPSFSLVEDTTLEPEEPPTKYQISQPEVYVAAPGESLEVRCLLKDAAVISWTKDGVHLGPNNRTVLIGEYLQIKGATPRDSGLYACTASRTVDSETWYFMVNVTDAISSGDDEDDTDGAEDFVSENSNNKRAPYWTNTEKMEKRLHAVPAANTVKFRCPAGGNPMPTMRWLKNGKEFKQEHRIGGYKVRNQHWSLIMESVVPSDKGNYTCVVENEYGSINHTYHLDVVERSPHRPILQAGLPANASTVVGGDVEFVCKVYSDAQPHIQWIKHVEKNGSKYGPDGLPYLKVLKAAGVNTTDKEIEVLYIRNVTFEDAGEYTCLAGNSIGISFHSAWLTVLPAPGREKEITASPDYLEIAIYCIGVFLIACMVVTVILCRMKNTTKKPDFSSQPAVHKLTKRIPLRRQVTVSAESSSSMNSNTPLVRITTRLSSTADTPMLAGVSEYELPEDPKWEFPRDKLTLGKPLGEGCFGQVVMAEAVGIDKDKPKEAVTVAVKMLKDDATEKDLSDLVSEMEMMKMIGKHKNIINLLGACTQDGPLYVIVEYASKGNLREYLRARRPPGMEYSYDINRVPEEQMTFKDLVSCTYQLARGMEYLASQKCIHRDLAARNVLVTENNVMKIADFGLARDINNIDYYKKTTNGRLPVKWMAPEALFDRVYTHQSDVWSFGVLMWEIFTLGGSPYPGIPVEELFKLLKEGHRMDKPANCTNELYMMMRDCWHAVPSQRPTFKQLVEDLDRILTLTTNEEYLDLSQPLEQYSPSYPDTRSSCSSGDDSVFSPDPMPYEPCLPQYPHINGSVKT

Structure (SMILES) | IC50 [1] [nM] | IC50 [2] [nM] | IC50 [3] [nM] | IC50 [4] [nM] | IC50 [5] [nM] | IC50 [6] [nM]
COc1cc(-c2cnn(C3CCN(C(=O)/C=C/CN(C)C)CC3)c2)cn2ncc(C#N)c12 [US12180207, Example 144] | 5 | 11 | 24 | 276 | 4 | 
C=CC(=O)N[C@H]1CC[C@@H](C(=O)N2CCC(n3cc(-c4cc(OC)c5c(C#N)cnn5c4)cn3)CC2)C1 [US12180207, Example 33] | 4 |  | 3 | 20 | 1 | 
COc1cc(-c2cnn(C3CCN(C(=O)C4CN(C(=O)/C=C/CF)C4)CC3)c2)cn2ncc(C#N)c12 [US12180207, Example 142] | 3 | 20 | 5 | 36 |  | 16
C=CC(=O)N[C@H]1CCC[C@@H](C(=O)N2CCC(n3cc(-c4cc(OC)c5c(C#N)cnn5c4)cn3)CC2)C1 [US12180207, Example 19] | 8 | 20 | 11 | 56 | 7 | 
C=CS(=O)(=O)N[C@H]1C[C@H](C(=O)N2CCC(n3cc(-c4cc(OC)c5c(C#N)cnn5c4)cn3)CC2)C1 [US12180207, Example 194] |  | 13 |  | 93 |  | 
C=CS(=O)(=O)N[C@H]1C[C@@H](C(=O)N2CCC(n3cc(-c4cc(OC)c5c(C#N)cnn5c4)cn3)CC2)C1 [US12180207, Example 193] |  | 7 |  | 36 |  | 
COc1cc(-c2cnn(C3CN(C(=O)C4CN(C(=O)/C=C/CN(C)C)C4)C3)c2)cn2ncc(C#N)c12 [US12180207, Example 150] | 6 | 8 | 22 | 229 | 7 | 

Further molecules by falling IC50 [4], results first:

IC50 [1] [nM] | IC50 [2] [nM] | IC50 [3] [nM] | IC50 [4] [nM] | IC50 [5] [nM] | IC50 [6] [nM] | Structure (SMILES)
12 | 35 | 118 | 393 | 11 |  | C=CC(=O)N[C@H]1CC[C@H](C(=O)N2CC(n3cc(-c4cc(OC)c5c(C#N)cnn5c4)cn3)C2)C1 [US12180207, Example 77]
5 | 19 | 36 | 231 | 2 |  | C=CC(=O)N[C@@H]1CC[C@@H](C(=O)N2CCC(n3cc(-c4cc(OC)c5c(C#N)cnn5c4)cn3)CC2)C1 [US12180207, Example 34]
6 | 47 | 14 | 217 | 4 |  | COc1cc(-c2cnn(C3CN(CC4CN(C(=O)/C=C/CN(C)C)C4)C3)c2)cn2ncc(C#N)c12 [US12180207, Example 148]
5 | 19 | 23 | 119 | 3 |  | C=CC(=O)N[C@H]1CC[C@H](C(=O)N2CCC(n3cc(-c4cc(OC)c5c(C#N)cnn5c4)cn3)CC2)C1 [US12180207, Example 35]
4 | 13 | 31 | 113 | 3 |  | C=CC(=O)N[C@@H]1CC[C@H](C(=O)N2CCC(n3cc(-c4cc(OC)c5c(C#N)cnn5c4)cn3)CC2)C1 [US12180207, Example 32]
 | 43 | 13 | 113 | 5 |  | C=CC(=O)Nc1ccc(S(=O)(=O)N2CCC(n3cc(-c4cc(OC)c5c(C#N)cnn5c4)cn3)CC2)cc1 [US12180207, Example 49]
2 | 21 | 7 | 37 | 4 | 19 | C=C(F)C(=O)N1CC(C(=O)N2CCC(n3cc(-c4cc(OC)c5c(C#N)cnn5c4)cn3)CC2)C1 [US12180207, Example 140]
5 | 17 | 4 | 31 |  |  | C=CS(=O)(=O)N[C@H]1CC[C@H](C(=O)N2CCC(n3cc(-c4cc(OC)c5c(C#N)cnn5c4)cn3)CC2)CC1 [US12180207, Example 187]
8 | 10 | 3 | 31 | 2 |  | C=CS(=O)(=O)Nc1ccc(C(=O)N2CCC(n3cc(-c4cc(OC)c5c(C#N)cnn5c4)cn3)CC2)cc1 [US12180207, Example 196]

Source: BindingDB's records for patent US12180207 (Array Biopharma, 2024)
